These results are taken from patent publication US11485728B2, “Small molecules for the treatment of autoimmune diseases and cancer” (Athos Therapeutics, Inc., priority 2020, dated 2022).

As usually defined, the Papp is a coefficient for how fast a substance crosses the barrier. For orientation: IC50 means the concentration at which inhibition is half-maximal. By half-life is commonly meant how long it takes for the measured level to halve.

A short description of one data set: PAMPA permeability. Particulars: PAMPA, 5 hours at RT. For orientation: In PAMPA a lipid-coated filter parts donor from acceptor wells.
The next data set deals with T1, CYP2C9 (Homo sapiens, UniProt P11712).
T1 construct: from tissue; host or cells: pooled human liver microsomes
T1 sequence (P11712 whole entry): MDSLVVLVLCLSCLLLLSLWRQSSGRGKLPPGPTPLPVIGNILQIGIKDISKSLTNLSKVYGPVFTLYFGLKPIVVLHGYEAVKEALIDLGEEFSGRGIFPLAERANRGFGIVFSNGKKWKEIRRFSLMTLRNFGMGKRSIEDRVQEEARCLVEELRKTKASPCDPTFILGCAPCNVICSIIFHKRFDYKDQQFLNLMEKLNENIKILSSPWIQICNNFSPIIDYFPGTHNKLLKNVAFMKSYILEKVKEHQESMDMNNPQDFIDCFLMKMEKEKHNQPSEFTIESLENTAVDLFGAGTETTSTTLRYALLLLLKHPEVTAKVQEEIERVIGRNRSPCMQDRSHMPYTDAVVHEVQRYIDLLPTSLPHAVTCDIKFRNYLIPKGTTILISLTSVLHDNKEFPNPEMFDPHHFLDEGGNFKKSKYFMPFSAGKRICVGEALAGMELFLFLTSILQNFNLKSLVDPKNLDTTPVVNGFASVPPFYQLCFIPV
Nature of the data set: CYP-direct inhibition, CYP2C9. Type of data set: in vitro ADME. Here is the method: (§1) Many drugs inhibit cytochrome P450 enzymes to cause clinically significant changes in the pharmacokinetics of other drugs. In vitro cytochrome P450 inhibition, can provide crucial information in evaluating potential clinical drug-drug interactions and is useful for focusing in vivo tests to areas of concern. The cytochrome P450 inhibition assay was developed by preparing a working cocktail solution consisting of six probe substrates 10 μM ethoxy-resorufin (CYP1A2), 100 μM rosiglitazone (CYP2C8), 50 μM diclofenac (CYP2C9), 300 μM S-mephenytoin (CYP2C19), 50 μM dextromethorphan (CYP2D6), and 20 μM midazolam (CYP3A4). A mixture solution consists of 140 uL of 0.286 mg/mL of pooled human liver microsome working solution and 20 uL working solutions of test articles, standard control inhibitors, or positive control placebo and 20 uL of substrate cocktail mixture working solution was prepared. The mixture solution was pre-warm in a gentle shaking bath at 37±2° C. for 5 minutes. The enzymatic reaction started by adding 20 uL of NRS working solution to the mixture solution and incubated for 10 minutes at 37±2° C. To stop the reaction, an addition of 400 μL cold stop solution (acetonitrile containing 50 ng/mL Tolbutamide as an internal standard (I.Std.) was added to the mixture solution. The final concentration of test article, inhibitors, substrates, and cofactors are noted in Table 0.1 below. Two individual samples were prepared for each test compound. The extracted samples were vortexed and then centrifuged at 4500 rpm for 7 minutes using Eppendorf Centrifuge 5910R. 200 uL of supernatant was diluting with 200 uL of 50% Methanol into 96-DW plate for LC/MS/MS analysis
(§2) Concentration-response plots are used to determine the effects of an inhibitor on an enzymatic reaction. A typical concentration-response plot provides fractional activity (Y axis) is plotted as a function of log inhibitor concentration (X axis). The data are fitted using a standard Sigmoidal dose-response equation which is also called a […] logistic equation. The concentration of compound that results in 50% inhibition of maximal activity is termed as the IC50 (inhibitor concentration yielding 50% inhibition). IC50 value is calculated using Prism GraphPad software, version 9. […].
(§3) Cytochrome P450 inhibition of a drug is a key factor in determining pharmacokinetic drug-drug interactions. The objective of this study was to evaluate the inhibition potential of G9a inhibitors on six (6) major human cytochrome P450 enzymes, including CYP1A2, CYP2C8, CYP2C9, CYP2C19, CYP2D6, and CYP3A4. Inhibition was determined by using a substrate cocktail and analyzing the rate of specific metabolites formation. The cytochrome P450 inhibition assay was developed using a cocktail consisting of six (6) probe substrates ethoxy-resorufin (CYP1A2), rosiglitazone (CYP2C8), diclofenac (CYP2C9), S-mephenytoin (CYP2C19), dextromethorphan (CYP2D6), and midazolam (CYP3A4). The cocktail was incubated in human liver microsome with NADPH regenerating system (NRS) in a shaking bath at 37±2° C. The formation of specific metabolites was monitored by LC/MS/MS. Test compound was added to the cocktail-liver microsome mixture at varying concentrations and its effect on cytochrome P450 activity was determined by analyzing the rate of specific metabolite formation. The percent inhibition was calculated and plotted with reference to the concentration, and the IC50 value for inhibition was derived by fitting the data with a using log(inhibitor) vs. normalized response with variable slope least squares fit by Graphpad Prism® software. […].

The nature of data set [1]: In-vitro half-life in mouse liver microsomes. Type of data set: in vitro ADME. To be noted: Mouse liver microsomes 0.5 mg/mL; 1 μg/mL drug; NRS; read-out: Metabolic Half-life. Here is the method: (§4) In each of the species (human, rat, mouse) of liver matrix to be tested, a working concentration of 2 μg/mL was prepared of each test article from the 0.5 mg/mL DMSO stock solution by adding 3 μL of 0.5 mg/mL test article stock solution to 747 μL of the 1 mg/mL liver matrix. Incubation was performed at 37±2° C. with gentle, continuous mixing in shaking water bath in 2.0 mL-well capacity 96-Deepwell plates (96-DWP). Samples were retrieved in duplicate at the following time points: 0, 5, 10, 15, 30 and 60 minutes. The final mixture contained 1 μg/mL of drug and 0.5 mg/mL of liver matrix. First, 50 μL of test articles in liver matrix was added to the 96-DWP and pre-warmed the mixture in the 96-DWP for 2 minutes in the 37° C. water bath. The enzymatic reaction was started by the addition of 50 μL of the corresponding 2× NADPH regenerating system (NRS) cofactor solution to all sample wells and stopped by the addition of 300 μL of stop solution (acetonitrile containing 10 ng/mL Tolbutamide as an internal standard (I.Std.). The samples were agitated for 10 minutes and then centrifuged for 20 minutes at 4500 rpm. 25 μL of supernatant was diluted with 475 μL acetonitrile containing I. Std. into a new 96-DWPs for LC-MS/MS analysis.
(§5) Half-life calculations were generated and calculated by Graphpad Prism® software. The half-life of test compound was calculated based on the first-order reaction kinetics. The data was transformed to linear regression (y=log(y) where “y” axis represents the % compound remaining at any given time with respect to time 0 minutes; “x” axis represents time in minutes) in order to calculate the half-life.
(§6) A comparison of metabolic stability in time-course incubation experiments in varying species of liver can provide information of pharmacokinetic properties of drugs attributable to species-related differences in hepatic metabolism. The results of these experiments often assist in further applications such as assessing in vitro metabolite profiling and choosing relevant species for toxicology studies based on similarities relative to the metabolic stability to the human profile. For these experiments, the test compound was tested in parallel with a positive control, Dasatinab, in an enzymatic reaction solution of each species (human and rat) of liver microsomes containing a NADPH regenerating system (NRS). The final mixture contained 1 μg/mL of drug and 0.5 mg/mL of liver matrix. Incubations were performed at 37±2° C. with gentle, continuous mixing in shaking water bath in 96-Deep well plates. The stability of the test compound is monitored using fast, specific and sensitive LC/MS/MS analysis.
Background: Microsomes from liver hold many membrane-bound enzymes, among them those of drug oxidation.

Data set [2] in a line: In-vitro half-life in rat liver microsomes. The format is in vitro ADME. To be noted: Rat liver microsomes 0.5 mg/mL; 1 μg/mL drug; NRS; read-out: Metabolic Half-life. The protocol: as §4, §5, §6
The target in the next data set is T2, CYP2C19 (Homo sapiens, UniProt P33261).
T2 construct: from tissue; host or cells: pooled human liver microsomes
T2 sequence (P33261 whole entry): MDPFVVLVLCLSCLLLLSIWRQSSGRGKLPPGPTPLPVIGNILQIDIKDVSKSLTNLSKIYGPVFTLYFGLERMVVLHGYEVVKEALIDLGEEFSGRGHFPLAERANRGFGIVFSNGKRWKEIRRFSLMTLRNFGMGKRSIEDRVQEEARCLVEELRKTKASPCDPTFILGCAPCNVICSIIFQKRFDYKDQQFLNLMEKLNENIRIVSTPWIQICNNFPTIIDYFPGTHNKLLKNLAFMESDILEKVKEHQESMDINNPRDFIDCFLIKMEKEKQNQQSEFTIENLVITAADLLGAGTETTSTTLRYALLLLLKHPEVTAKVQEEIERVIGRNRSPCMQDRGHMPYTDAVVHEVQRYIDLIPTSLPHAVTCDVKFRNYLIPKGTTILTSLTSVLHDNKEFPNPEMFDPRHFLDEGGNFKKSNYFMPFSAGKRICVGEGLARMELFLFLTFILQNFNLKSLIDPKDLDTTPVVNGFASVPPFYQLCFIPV
Description: CYP-direct inhibition, CYP2C19. Type of data set: in vitro ADME. The protocol:
as §1, §2, §3

In a further data set the target is T3, CYP2D6 (Homo sapiens, UniProt P10635).
T3 construct: from tissue; host or cells: pooled human liver microsomes
T3 sequence (P10635 whole entry): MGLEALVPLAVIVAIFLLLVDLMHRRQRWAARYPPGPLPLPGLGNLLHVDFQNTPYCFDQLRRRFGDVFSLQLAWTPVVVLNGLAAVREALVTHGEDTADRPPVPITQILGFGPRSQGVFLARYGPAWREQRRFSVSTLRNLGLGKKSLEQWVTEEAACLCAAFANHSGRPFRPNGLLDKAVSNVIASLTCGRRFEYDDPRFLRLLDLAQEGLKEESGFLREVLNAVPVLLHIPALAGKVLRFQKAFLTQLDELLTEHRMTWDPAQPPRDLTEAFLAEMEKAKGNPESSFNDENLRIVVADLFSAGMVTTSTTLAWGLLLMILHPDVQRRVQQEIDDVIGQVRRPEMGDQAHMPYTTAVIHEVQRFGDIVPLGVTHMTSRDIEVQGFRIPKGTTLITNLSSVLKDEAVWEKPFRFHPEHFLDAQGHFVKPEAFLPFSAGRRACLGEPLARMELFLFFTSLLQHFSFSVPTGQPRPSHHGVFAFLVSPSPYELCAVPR
Description: CYP-direct inhibition, CYP2D6. Type of data set: in vitro ADME. Particulars: human liver microsome; substrate dextromethorphan; read-out: IC50 CYP-2D6. Here is the method:
as §1, §2, §3

Another data set concerns the target T4, CYP3A4 (Homo sapiens, UniProt P08684).
T4 construct: from tissue; host or cells: pooled human liver microsomes
Nature of the data set: CYP-direct inhibition, CYP3A4. Type of data set: in vitro ADME. The protocol:
as §1, §2, §3

[3] abbreviates: PAMPA permeability Classification, 20 μM donor.
The mark [4] stands for this setting: Permeability, Pe, 20 μM donor in PBS/MeOH 90:10.

Structures are written as SMILES.

T4 sequence (P08684 whole entry): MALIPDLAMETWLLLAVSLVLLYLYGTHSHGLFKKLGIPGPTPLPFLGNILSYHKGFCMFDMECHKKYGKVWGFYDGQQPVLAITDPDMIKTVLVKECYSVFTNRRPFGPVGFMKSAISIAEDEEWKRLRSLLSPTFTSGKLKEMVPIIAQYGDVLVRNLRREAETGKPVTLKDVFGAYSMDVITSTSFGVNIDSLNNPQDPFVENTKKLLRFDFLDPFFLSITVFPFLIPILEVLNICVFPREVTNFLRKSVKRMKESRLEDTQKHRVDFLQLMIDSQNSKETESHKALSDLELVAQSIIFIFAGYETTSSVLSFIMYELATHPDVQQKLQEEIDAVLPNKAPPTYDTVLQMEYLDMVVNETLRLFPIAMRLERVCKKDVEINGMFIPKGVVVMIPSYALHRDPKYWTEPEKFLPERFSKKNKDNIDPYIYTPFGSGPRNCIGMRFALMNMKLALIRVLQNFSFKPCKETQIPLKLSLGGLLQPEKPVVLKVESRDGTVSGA
Description for PAMPA permeability: Parallel artificial membrane permeability (PAMPA) assay is a non-cell based assay designed to predict in vivo biological membrane permeability of drugs in early stage of drug discovery. […] The Corning Gentest Pre-coated PAMPA plate system was designed by 96-well insert system with a 0.45 μm PVDF (polyvinylidene fluoride) filter plate which has been pre-coated with structured tri-layers of phospholipids (lipid/oil/lipid) and a matched receiver microplate.
Donor solutions of test compounds (300 μL, 20 μM in PBS/MeOH 90:10) were added to each well of the donor plate. 200 μL of PBS/MeOH 90:10 was added to each well of the acceptor plate. The acceptor plate was coupled with the donor plate and incubated for 5 hours at room temperature (RT) without agitation. In each plate, compounds were tested in triplicate. At the end of the incubation, drug concentration in the initial donor solution, acceptor and the donor wells were determined using LC/MS/MS. A five (5) points standard curve from 0.1 to 1000 nM for each test compound were prepared. Analyte samples were diluted to within standard curve concentration with ACN/H2O 50:50 prior analysis.
All samples were analyzed by electrospray ionization (ESI) liquid chromatograph/mass spectrometry (LC/MS) system utilizing Sciex 5500 quadropule ion trap (Qtrap) mass spectrometry with Shidmazu Nexera X2 UHPLC. The LC-MS/MS instrument monitored each of the test compound in the study based of their respective mass-to-charge (m/z) transitions and MS parameters. Chromatographic separation was achieved on Phenomenex Luna C18 column (50×2.0 mm, 3 μm particle size) by using a gradient elution: mobile phase A contains 0.1% formic acid in water and mobile phase B contains 0.1% formic acid in acetonitrile; A/B (99:1) from 0 to 1 minutes; to A/B (1:99) from 1 to 4 minutes; A/B (1:99) from 4 to 8 minutes; to A/B (99:1) from 8 to 8.20 minutes; A/B (99:1) from 8.2 to 9 minutes. The flow rate was 0.4 mL/min and the column temperature was maintained at 35° C. and autosampler temperature at 4° C. For detection, the electrospray ionization operated in the positive mode using multiple reaction monitoring (MRM).
Data acquisition, and peak integrations were obtained by Analyst® Version 1.7.1 (Sciex) operating with Windows® (Microsoft). The standard curve regressions and sample concentrations were generated and calculated by Analyst®. Concentrations in the sample solutions were determined based on the measured peak area ratios from the response of the analyte to the internal standard with reference to the standard calibration curve. All sample calculations were calculated using a linear regression with 1/x^2 weighting (where x is the concentration of given calibration standard level).
Permeability of the test compounds was calculated using the following formula:
The permeability of compounds was evaluated with the parallel artificial membrane permeation assay (PAMPA) as an in vivo model of passive diffusion across a porous filter coated with a lipid/oil/lipid tri-layer artificial membrane. […] Donor solutions of test compounds (300 μL, 20 μM in PBS/MeOH 90:10) were added to each well of the donor plate. 200 μL of PBS/MeOH 90:10 was added to each well of the acceptor plate. The acceptor plate was coupled with the donor plate and incubated for 5 hours at room temperature (RT) without agitation. In each plate, compounds were tested in triplicate. At the end of the incubation, drug concentration in the initial donor solution, acceptor and the donor wells were determined using LC/MS/MS. Permeability of test compounds was calculated based on the formula described in the General Procedures above. The PAMPA permeability classification criteria are categorized into three (3) classes with a high (Pe≥1.5×10−6 cm/s), intermediate (5.5×10−8<Pe<1.5×10−6 cm/s), and low (Pe<5.5×10−8 cm/s) permeability.

Turning to `COc1cc2c(NCC(N)=O)nc(N3CCC(F)(F)CC3)nc2cc1OCCCN1CCCC1` [Compound 9, 2-((2-(4,4-difluoropiperidin-1-yl)-6-methoxy-7-(3-(pyrrolidin-1-yl)propoxy)quinazolin-4-yl)amino)acetamide], the Papp at 5 h, 20 μM is less than 0.055 ×10⁻⁶ cm/s in the data set “PAMPA permeability” (setting [3]) and 0.00981 ×10⁻⁶ cm/s in the data set “PAMPA permeability” (setting [4]). Also, the half-inhibitory concentration (IC50) at CYP2C9, on CYP2C19, at CYP2D6 and on CYP3A4 was more than 100 µM in each case. The half-life at 1 μg/mL in data set [1] and in data set [2] was more than 1 h in each case.
Take `COc1cc2c(NC3COC3)nc(N3CCC(F)(F)CC3)nc2cc1OCCCN1CCCC1` [Compound 11, 2-(4,4-difluoropiperidin-1-yl)-6-methoxy-N-(oxetan-3-yl)-7-(3-(pyrrolidin-1-yl)propoxy)quinazolin-4-amine]: the values for the Papp at 5 h, 20 μM in “PAMPA permeability” (setting [3]) and in “PAMPA permeability” (setting [4]) were 0.055 to 1.5 ×10⁻⁶ cm/s and 0.458 ×10⁻⁶ cm/s, respectively. Moreover, the concentration for half-maximal inhibition (IC50) is more than 100 µM against CYP2C9, more than 100 µM against CYP2C19, 29.5 µM at CYP2D6 and more than 100 µM against CYP3A4. Moreover, the half-life at 1 μg/mL in data set [1] and in data set [2] was more than 1 h each time.
On to `COc1cc2c(NC3CCS(=O)(=O)CC3)nc(N3CCCC3)nc2cc1OCCCN1CCCC1` [Compound 80, 4-((6-methoxy-2-(pyrrolidin-1-yl)-7-(3-(pyrrolidin-1-yl)propoxy)quinazolin-4-yl)amino)tetrahydro-2H-thiopyran 1,1-dioxide], for which the Papp at 5 h, 20 μM in “PAMPA permeability” (setting [3]) is less than 0.055 ×10⁻⁶ cm/s; in “PAMPA permeability” (setting [4]), 0.00298 ×10⁻⁶ cm/s. In addition, the IC50 at CYP2C9 was more than 100 µM; against CYP2C19, more than 100 µM; at CYP2D6 it was 43 µM; at CYP3A4, more than 100 µM. The half-life at 1 μg/mL in data set [1] and in data set [2] was more than 1 h each time.
Turning to `COc1cc2c(NC3CCS(=O)(=O)CC3)nc(N3CCOCC3)nc2cc1OCCCN1CCCC1` [Compound 102, 4-((6-methoxy-2-morpholino-7-(3-(pyrrolidin-1-yl)propoxy)quinazolin-4-yl)amino)tetrahydro-2H-thiopyran 1,1-dioxide], the Papp at 5 h, 20 μM was less than 0.055 ×10⁻⁶ cm/s in “PAMPA permeability” (setting [3]) and 0.000648 ×10⁻⁶ cm/s in “PAMPA permeability” (setting [4]). Moreover, the IC50 against CYP2C9 is more than 100 µM; on CYP2C19, more than 100 µM; on CYP2D6, 29 µM; against CYP3A4, more than 100 µM. Also, the half-life at 1 μg/mL in data set [1] and in data set [2] was more than 1 h each time.
`COc1cc2c(NC3CCS(=O)(=O)CC3)nc(N3CCS(=O)(=O)CC3)nc2cc1OCCCN1CCCC1` [Compound 103, 4-(4-((1,1-dioxidotetrahydro-2H-thiopyran-4-yl)amino)-6-methoxy-7-(3-(pyrrolidin-1-yl)propoxy)quinazolin-2-yl)thiomorpholine 1,1-dioxide]: the Papp at 5 h, 20 μM is less than 0.055 ×10⁻⁶ cm/s in the data set “PAMPA permeability” (setting [3]) and 0.0119 ×10⁻⁶ cm/s in “PAMPA permeability” (setting [4]). The IC50 against CYP2C9, on CYP2C19, at CYP2D6 and at CYP3A4 was more than 100 µM each time. The half-life at 1 μg/mL in data set [1] and in data set [2] was more than 1 h in each case.
On to `COc1cc2c(NC3CCS(=O)(=O)CC3)nc(N3CCN(C)CC3)nc2cc1OCCCN1CCCC1` [Compound 109, 4-((6-methoxy-2-(4-methylpiperazin-1-yl)-7-(3-(pyrrolidin-1-yl)propoxy)quinazolin-4-yl)amino)tetrahydro-2H-thiopyran 1,1-dioxide], for which the Papp at 5 h, 20 μM was less than 0.055 ×10⁻⁶ cm/s in the data set “PAMPA permeability” (setting [3]) and 0.00475 ×10⁻⁶ cm/s in the data set “PAMPA permeability” (setting [4]). The IC50 against CYP2C9, against CYP2C19, on CYP2D6 and against CYP3A4 was more than 100 µM in each case. Moreover, the half-life at 1 μg/mL in data set [1] and in data set [2] was more than 1 h each time.
In the case of `COc1cc2c(NC3CCS(=O)(=O)CC3)nc(N3CCCN(C)CC3)nc2cc1OCCCN1CCCC1` [Compound 110, 4-((6-methoxy-2-(4-methyl-1,4-diazepan-1-yl)-7-(3-(pyrrolidin-1-yl)propoxy)quinazolin-4-yl)amino)tetrahydro-2H-thiopyran 1,1-dioxide], the results for the Papp at 5 h, 20 μM in “PAMPA permeability” (setting [3]) and in “PAMPA permeability” (setting [4]) were less than 0.055 ×10⁻⁶ cm/s and 0.00676 ×10⁻⁶ cm/s, respectively. Also, the IC50 on CYP2C9, against CYP2C19, on CYP2D6 and against CYP3A4 was more than 100 µM in each case. Also, the half-life at 1 μg/mL in data set [1] and in data set [2] was more than 1 h each time.
Take `COc1cc2c(Nc3ccncc3)nc(-n3ccnc3)nc2cc1OCCCN1CCCC1` [Compound 130, 2-(1H-imidazol-1-yl)-6-methoxy-N-(pyridin-4-yl)-7-(3-(pyrrolidin-1-yl)propoxy)quinazolin-4-amine]: the values for the Papp at 5 h, 20 μM in the data set “PAMPA permeability” (setting [3]) and in the data set “PAMPA permeability” (setting [4]) were less than 0.055 ×10⁻⁶ cm/s and 0.0129 ×10⁻⁶ cm/s, respectively. For the same compound, the IC50 at CYP2C9 came to 65.5 µM; at CYP2C19 it was 75.7 µM; on CYP2D6, 4.88 µM; against CYP3A4, 3.85 µM. For the same compound, the results for the half-life at 1 μg/mL in data set [1] and in data set [2] were 0.535 h and more than 1 h, respectively.
